Measured values from ChEMBL document CHEMBL3507680, “University of Dundee, Gates Library screen for HepG2 cell viability”.

Assay: Human HepG2 cell viability assay in 384 well format
Type: toxicity, cell-based
Set-up: dose 125 nL, time 70.5 hour; concentration not given beside the values
Conditions: HepG2 cells, read-out: Inhibition

| SMILES | cytotoxicity at 70.5 h |
| --- | --- |
| CC(C)Nc1ncnc2c1CCN(Cc1nccn1C)CC2 | 8.85% |
| CSc1ccc(OCCN2CCNC(=O)C2C)cc1 (stereo unspecified) | -15.5% |
| CCc1ncc(C(=O)N(C)C(C)c2ccc3c(c2)OCCO3)cn1 (stereo unspecified) | 1.19% |
| Cn1cc(C2CCCN2CCC(=O)N2CCc3sccc3C2)cn1 (stereo unspecified) | -4.52% |
| CC(C)c1n[nH]c(C(=O)Nc2ccncc2)c1Br | 3.41% |
| N#Cc1cnc(N2Cc3cnn(Cc4ccc(F)cc4)c3C2)nc1N | -6.63% |
| CC(C)(C)OC(=O)NCCNC(=O)c1cnc(-c2ccccc2)nc1 | -0.668% |
| O=C(NCc1ccnc(OCC(F)(F)F)c1)NCC1COCCO1 (stereo unspecified) | -6.7% |
| CN1CC(C(=O)N(C)Cc2cc(-c3cccnc3)no2)NC1=O (stereo unspecified) | -8.52% |
| CC(C)(C)c1ncc(C(=O)N2CCN(C(=O)c3ccc[nH]3)CC2)c(O)n1 | -2.76% |
| Cc1ccc([C@]2(O)CC[C@H]3CN(Cc4cccc(F)c4F)C[C@H]32)nc1 | 5.11% |
| CNC(=O)CCOC(=O)c1cccc(-n2ccc(C(F)(F)F)n2)c1 | 0.427% |
| CCCc1cc(C(=O)N2C[C@H]3CC=C(C)C[C@H]3C2)ccn1 | -8.24% |
| COCCN(C)C(=O)c1nc2c(s1)CCCN2c1ncccn1 | -3.25% |
| CC(=O)N[C@@H]1CN(Cc2nccn2C)C[C@H]1c1ccc(C)cc1 | 22.6% |
| O=C(CCc1nc2ccccc2[nH]1)N1CCCC(n2cccn2)C1 (stereo unspecified) | 2.61% |
| Cc1nccn1CC1CCCN(Cc2ccc(-c3cccnc3)cc2)C1 (stereo unspecified) | -9.2% |
| CCc1nnc(CN(C)C[C@@H]2CCCN3CCCC[C@H]23)o1 | -3.62% |
| CC(C)Cc1cc(NC(=O)c2ccc3[nH]nnc3c2)n(C)n1 | 14.7% |

| SMILES | cytotoxicity at 70.5 h |
| --- | --- |
| Cc1csc(N2CCN(C(=O)c3c(C)oc(C)c3C)CC2)n1 | -1.28% |
| O=C(CSC1CCc2ccccc2NC1=O)NCCc1ccc(O)cc1 (stereo unspecified) | -2.27% |
| O=C(NCCN1CCCC(CO)C1)c1ccc2scnc2c1 (stereo unspecified) | -13.1% |
| Cc1cc(N2CCN(Cc3ccc(-c4cc[nH]n4)o3)CC2)cc(C)n1 | 19.1% |
| Cc1cnc(-c2nc(O)c3c(n2)CN(C(=O)C2CCCO2)CC3)cn1 (stereo unspecified) | -1.18% |
| c1ccc(-c2noc(CN3CCOC(Cn4cccn4)C3)n2)nc1 (stereo unspecified) | -8.08% |
| O=C(CN1CCCCCC1)NCCSc1cnn[nH]1 | 0.00682% |
| Cc1cc(C)c(CNc2nc3ccccc3cc2CO)c(=O)[nH]1 | 6.72% |
| O=S(=O)(NC1CCC2(CC1)OCCO2)c1cccc(Br)c1 | 12% |
| CC(NCCN1CCC(N(C)C)CC1)c1ccc(F)cc1N(C)C (stereo unspecified) | 15% |
| CC(=O)N1CCCC2(C1)CN(C(=O)C1CCCCC1)CCO2 (stereo unspecified) | 23.5% |
| COc1ccc(CN(C)Cc2nc3c(cnn3C)c(=O)[nH]2)cc1OC | -6.1% |
| CCN1N=C(C(=O)N2CCCC(c3nc(C)c(C)s3)C2)CCC1=O (stereo unspecified) | -0.596% |
| Cc1cnn(CCNC(C)C(=O)Nc2ccc(Cl)cn2)c1 (stereo unspecified) | -9.14% |
| Cc1ccccc1NC(=O)NCC(C)(O)c1cccs1 (stereo unspecified) | 4.31% |
| CC(O)CN1CCN(C(=O)CCOc2ccccc2F)CC1 (stereo unspecified) | -17.1% |
| Cc1cccc(NS(=O)(=O)c2cnn(C)c2)c1C#N | -12.8% |
| Cc1cc(NC(=O)NCCc2ccsc2)n(C)n1 | -3.08% |
| CCc1cnc(N2CCC3(CCN(CC)C3=O)CC2)nc1 | -4.14% |

| SMILES | cytotoxicity at 70.5 h |
| --- | --- |
| Cc1sc2nc(SC(C)c3nc(C(C)(C)C)no3)nc(N)c2c1C (stereo unspecified) | 21.9% |
| Cc1nc(CN2CCC3(CCCO3)CCC2=O)no1 (stereo unspecified) | -3.41% |
| N#Cc1cccc(CNC(=O)NC2CCN(CC(F)F)CC2)c1 | 17.7% |
| CCCN1CCN(C(=O)C(C)n2cc(Br)cn2)CC1 (stereo unspecified) | -7.56% |
| CCCc1nc(N(C)CCN2CCCCCC2)c2cnn(C)c2n1 | -11% |
| Cn1cc(CN2CCc3onc(COc4cccnc4)c3C2)cn1 | 14.8% |
| O=C(NC1CCCCC1)N1CCC(N2Cc3ncccc3C2=O)CC1 | -13.7% |
| COCc1csc(NC(=O)NCc2ccsc2)n1 | -4.84% |
| COc1ccc(CN2C[C@@H]3CN(CCO)C[C@@H]3C2=O)cc1 | -11.6% |
| CCn1c(CN2CCN(CCO)CC2)nc2c(F)cccc21 | -4.39% |
| O=C1CCC2(CCCN(Cc3nccs3)C2)N1CC1CC1 (stereo unspecified) | 10.7% |
| CCC(NC1CCN(C(=O)c2ccccc2)CC1)c1cccs1 (stereo unspecified) | -16.9% |
| Cc1ccc(Oc2ncccc2CNC(=O)C2COC(=O)N2)c(F)c1F (stereo unspecified) | -11.2% |
| O=C(O)CCc1cc2n(n1)CCCN(C(=O)c1ccc3cc[nH]c3c1)C2 | -14% |
| CC(NC(=O)N1CCN(c2ccc(Cl)cc2)CC1)C(=O)N1CCSCC1 (stereo unspecified) | -12.6% |
| Cc1cc(CN(CCO)c2ccccc2)on1 | 0.618% |
| CC(NC(=O)CCOc1cccc(F)c1)c1nnc2n1CCC2 (stereo unspecified) | -2.58% |
| Cc1cc(-c2cc3nc(C)c(C)c(NCC4COCCO4)n3n2)no1 (stereo unspecified) | -5.97% |
